Measurements as given in patent US10131652B2, “Pyrimidinyloxy benzene derivatives as herbicides” (E. I. DU PONT DE NEMOURS AND COMPANY, priority 2014, dated 2018).
Where two headings read alike, the source gives them in different places.

What was measured:
Format in all cases: in vivo
[1] = system: morningglory (Ipomoea spp.); test: Test B pre-/postemergence plant response; settings: Ipomoea, 240 h, read-out: Plant response rating, Morningglory; for pest or weed control at 1000 g/ha: 1000 g ai/ha; for pest or weed control at 125 g/ha: 125 g ai/ha; for pest or weed control at 500 g/ha: 500 g ai/ha
How it was run: (§1)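 Visual injury scores on a 0–100 scale (100 = complete control) relative to untreated plants, taken about 10 days post-treatment in greenhouse. Treatments were a directed preemergence soil spray and a postemergence spray at one- to two-leaf stage, using surfactant-containing solvent formulation.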

[2] = system: velvetleaf (Abutilon theophrasti); test: Test B pre-/postemergence plant response; settings: Abutilon theophrasti, 240 h, read-out: Plant response rating, Velvetleaf; for pest or weed control at 1000 g/ha: 1000 g ai/ha; for pest or weed control at 125 g/ha: 125 g ai/ha; for pest or weed control at 500 g/ha: 500 g ai/ha
How it was run: as §1

[3] = system: large (Lg) crabgrass (Digitaria sanguinalis); test: Test B pre-/postemergence plant response; settings: Digitaria sanguinalis, 240 h, read-out: Plant response rating, Crabgrass, Large; for pest or weed control at 1000 g/ha: 1000 g ai/ha; for pest or weed control at 125 g/ha: 125 g ai/ha; for pest or weed control at 500 g/ha: 500 g ai/ha
How it was run: as §1

[4] = system: waterhemp_RES2 (ALS & HPPD resistant common waterhemp, Amaranthus rudis); test: Test F postemergence plant response; settings: scale 0 to 100
How it was run: (§2)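 Rated visually versus controls, 0 (no effect) to 100 (complete control), after 14–21 days in greenhouse. Compounds were sprayed postemergence on seedlings at 1- to 4-leaf stage, 2–18 cm tall.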

[5] = system: waterhemp_RES1 (ALS & Triazine resistant common waterhemp, Amaranthus rudis); test: Test F postemergence plant response; settings: scale 0 to 100
How it was run: as §2

[6] = system: wild poinsettia (Euphorbia heterophylla); test: Test F pre-/postemergence plant response; settings: Euphorbia heterophylla, scale 0 to 100, read-out: Plant response rating, Poinsettia, Wild
How it was run: (§3)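 Values are visual ratings, where 100 is complete control and 0 is no effect, given after 14 to 21 days of greenhouse growth. Test chemicals in a non-phytotoxic, surfactant-containing solvent were sprayed on soil just after planting or on emerged seedlings at the 1- to 4-leaf stage.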

[7] = system: Brazilian crabgrass (Digitaria horizontalis); test: Test F pre-/postemergence plant response; settings: Digitaria horizontalis, scale 0 to 100, read-out: Plant response rating, Crabgrass, Brazil
How it was run: as §3

[8] = post-emergence, Postemergence, 0 to 100 scale (0 no effect, 100 complete control)
[9] = pre-emergence, Preemergence, 0 to 100 scale (0 no effect, 100 complete control)
[10] = post-emergence, 8 g ai/ha Postemergence
[11] = post-emergence, 16 g ai/ha Postemergence
[12] = post-emergence, 31 g ai/ha Postemergence
[13] = post-emergence, 62 g ai/ha Postemergence
[14] = post-emergence, 125 g ai/ha Postemergence
[15] = pre-emergence, 8 g ai/ha Preemergence
[16] = pre-emergence, 16 g ai/ha Preemergence
[17] = pre-emergence, 31 g ai/ha Preemergence
[18] = pre-emergence, 125 g ai/ha Preemergence
[19] = pre-emergence, 62 g ai/ha Preemergence
[20] = post-emergence, postemergence, 0 to 100 scale, 0 no effect, 100 complete control
[21] = pre-emergence, Preemergence, 0 to 100 scale where 0 is no effect and 100 is complete control

Q: How did the pest or weed control at 1000 g/ha [1, 8] turn out when `FC(F)c1cc(-c2ccccc2Oc2ncc(Cl)cn2)no1` [Compound 35, 5-chloro-2-[2-[5-(difluoromethyl)-3-isoxazolyl]phenoxy]pyrimidine] was run?
A: 100%

Q: What about the pest or weed control at 1000 g/ha [1, 9] of the same compound?
A: 90%

Q: What about the pest or weed control at 1000 g/ha [2, 8] of the same compound?
A: 100%

Q: What about the pest or weed control at 1000 g/ha [2, 9] of the same compound?
A: 100%

Q: And the pest or weed control at 1000 g/ha [3, 8]?
A: 100%

Q: What about the pest or weed control at 1000 g/ha [3, 9] of the same compound?
A: 100%

Q: What about the “Plant response rating, Waterhemp_RES2” value ([4]; 8 g ai/ha Postemergence) of the same compound?
A: 90

Q: And the “Plant response rating, Waterhemp_RES2” value ([4]; 16 g ai/ha Postemergence)?
A: 90

Q: What about the “Plant response rating, Waterhemp_RES2” value ([4]; 31 g ai/ha Postemergence) of the same compound?
A: 95

Q: And the “Plant response rating, Waterhemp_RES2” value ([4]; 62 g ai/ha Postemergence)?
A: 100

Q: And the “Plant response rating, Waterhemp_RES2” value ([4]; 125 g ai/ha Postemergence)?
A: 100

Q: What about the “Plant response rating, Waterhemp_RES1” value ([5]; 8 g ai/ha Postemergence) of the same compound?
A: 90

Q: What about the “Plant response rating, Waterhemp_RES1” value ([5]; 16 g ai/ha Postemergence) of the same compound?
A: 80

Q: And the “Plant response rating, Waterhemp_RES1” value ([5]; 31 g ai/ha Postemergence)?
A: 90

Q: What about the “Plant response rating, Waterhemp_RES1” value ([5]; 62 g ai/ha Postemergence) of the same compound?
A: 100

Q: And the “Plant response rating, Waterhemp_RES1” value ([5]; 125 g ai/ha Postemergence)?
A: 100

Q: And the pest or weed control at 8 g/ha [6, 10]?
A: 30%

Q: And the pest or weed control at 16 g/ha [6, 11]?
A: 40%

Q: What about the pest or weed control at 31 g/ha [6, 12] of the same compound?
A: 50%

Q: And the pest or weed control at 62 g/ha [6, 13]?
A: 50%

Q: And the pest or weed control at 125 g/ha [6, 14]?
A: 80%

Q: And the pest or weed control at 8 g/ha [6, 15]?
A: 20%

Q: What about the pest or weed control at 16 g/ha [6, 16] of the same compound?
A: 30%

Q: And the pest or weed control at 31 g/ha [6, 17]?
A: 35%

Q: What about the pest or weed control at 125 g/ha [6, 18] of the same compound?
A: 40%

Q: What about the pest or weed control at 62 g/ha ([6]; pre-emergence, Preemergence) of the same compound?
A: 70%

Q: What about the pest or weed control at 8 g/ha [7, 10] of the same compound?
A: 10%

Q: And the pest or weed control at 16 g/ha [7, 11]?
A: 20%

Q: And the pest or weed control at 31 g/ha [7, 12]?
A: 30%

Q: And the pest or weed control at 62 g/ha [7, 13]?
A: 35%

Q: What about the pest or weed control at 125 g/ha [7, 14] of the same compound?
A: 40%

Q: What about the pest or weed control at 8 g/ha [7, 15] of the same compound?
A: 0%

Q: And the pest or weed control at 16 g/ha [7, 16]?
A: 95%

Q: What about the pest or weed control at 31 g/ha [7, 17] of the same compound?
A: 98%

Q: What about the pest or weed control at 62 g/ha [7, 19] of the same compound?
A: 100%

Q: And the pest or weed control at 125 g/ha [7, 18]?
A: 100%

Q: `FC(F)c1cc(-c2ccccc2Oc2ncc(Br)cn2)no1` [Compound 62, 5-bromo-2-[2-[5-(difluoromethyl)-3-isoxazolyl]phenoxy]pyrimidine] was tested. Which pest or weed control at 125 g/ha [1, 20] did it give?
A: 90%

Q: What about the pest or weed control at 500 g/ha [1, 8] of the same compound?
A: 100%

Q: And the pest or weed control at 125 g/ha [1, 21]?
A: 60%

Q: And the pest or weed control at 500 g/ha [1, 21]?
A: 90%

Q: What about the pest or weed control at 125 g/ha [2, 20] of the same compound?
A: 100%

Q: What about the pest or weed control at 500 g/ha [2, 8] of the same compound?
A: 100%

Q: What about the pest or weed control at 125 g/ha [2, 21] of the same compound?
A: 90%

Q: And the pest or weed control at 500 g/ha [2, 21]?
A: 100%

Q: And the pest or weed control at 125 g/ha [3, 20]?
A: 70%

Q: What about the pest or weed control at 500 g/ha [3, 8] of the same compound?
A: 90%

Q: And the pest or weed control at 125 g/ha [3, 21]?
A: 100%

Q: What about the pest or weed control at 500 g/ha [3, 21] of the same compound?
A: 100%

Q: And the “Plant response rating, Waterhemp_RES2” value ([4]; 8 g ai/ha Postemergence)?
A: 80

Q: What about the “Plant response rating, Waterhemp_RES2” value ([4]; 16 g ai/ha Postemergence) of the same compound?
A: 80

Q: What about the “Plant response rating, Waterhemp_RES2” value ([4]; 31 g ai/ha Postemergence) of the same compound?
A: 100

Q: What about the “Plant response rating, Waterhemp_RES2” value ([4]; 62 g ai/ha Postemergence) of the same compound?
A: 100

Q: What about the “Plant response rating, Waterhemp_RES2” value ([4]; 125 g ai/ha Postemergence) of the same compound?
A: 100

Q: And the “Plant response rating, Waterhemp_RES1” value ([5]; 8 g ai/ha Postemergence)?
A: 80

Q: What about the “Plant response rating, Waterhemp_RES1” value ([5]; 16 g ai/ha Postemergence) of the same compound?
A: 85

Q: What about the “Plant response rating, Waterhemp_RES1” value ([5]; 31 g ai/ha Postemergence) of the same compound?
A: 100

Q: What about the “Plant response rating, Waterhemp_RES1” value ([5]; 62 g ai/ha Postemergence) of the same compound?
A: 100

Q: And the “Plant response rating, Waterhemp_RES1” value ([5]; 125 g ai/ha Postemergence)?
A: 100

Q: And the pest or weed control at 8 g/ha [6, 10]?
A: 25%

Q: What about the pest or weed control at 16 g/ha [6, 11] of the same compound?
A: 35%

Q: What about the pest or weed control at 31 g/ha [6, 12] of the same compound?
A: 40%

Q: What about the pest or weed control at 62 g/ha [6, 13] of the same compound?
A: 50%

Q: What about the pest or weed control at 125 g/ha [6, 14] of the same compound?
A: 50%

Q: And the pest or weed control at 8 g/ha [6, 15]?
A: 0%

Q: What about the pest or weed control at 16 g/ha [6, 16] of the same compound?
A: 0%

Q: And the pest or weed control at 31 g/ha [6, 17]?
A: 30%

Q: And the pest or weed control at 125 g/ha [6, 18]?
A: 35%

Q: What about the pest or weed control at 62 g/ha ([6]; pre-emergence, Preemergence) of the same compound?
A: 25%

Q: What about the pest or weed control at 8 g/ha [7, 10] of the same compound?
A: 0%

Q: And the pest or weed control at 16 g/ha [7, 11]?
A: 0%

Q: And the pest or weed control at 31 g/ha [7, 12]?
A: 10%

Q: What about the pest or weed control at 62 g/ha [7, 13] of the same compound?
A: 15%

Q: And the pest or weed control at 125 g/ha [7, 14]?
A: 10%

Q: What about the pest or weed control at 8 g/ha [7, 15] of the same compound?
A: 0%

Q: What about the pest or weed control at 16 g/ha [7, 16] of the same compound?
A: 0%

Q: And the pest or weed control at 31 g/ha [7, 17]?
A: 75%

Q: What about the pest or weed control at 62 g/ha [7, 19] of the same compound?
A: 100%

Q: And the pest or weed control at 125 g/ha [7, 18]?
A: 100%
